ChEMBL document CHEMBL5357020, “Reducing Self-Assembly by Increasing Net Charge: Effect on Biological Activity of Mastoparan C” (ACS Med Chem Lett, 2024)
Active and inactive are the calls of the source. The calls are words filed in the database; no cut-off is given here.

Tests used:
Bacillus cereus = assay: Antimicrobial activity against Bacillus cereus ATCC 11778 assessed as reduction in microbial growth after 24 hrs by broth microdilution method; assay type: functional
Candida albicans = assay: Antifungal activity against Candida albicans ATCC 10231 assessed as reduction in fungal growth after 24 hrs by broth microdilution method; assay type: functional
Listeria monocytogenes = assay: Antimicrobial activity against Listeria monocytogenes ATCC 15313 assessed as reduction in microbial growth after 24 hrs by broth microdilution method; assay type: functional
Staphylococcus aureus = assay: Antimicrobial activity against Staphylococcus aureus ATCC 25923 assessed as reduction in microbial growth after 24 hrs by broth microdilution method; assay type: functional
Enterococcus faecalis = assay: Antimicrobial activity against Enterococcus faecalis ATCC 29212 assessed as reduction in microbial growth after 24 hrs by broth microdilution method; assay type: functional
Escherichia coli = assay: Antimicrobial activity against Escherichia coli ATCC 25922 assessed as reduction in microbial growth after 24 hrs by broth microdilution method; assay type: functional
Salmonella enterica = assay: Antimicrobial activity against Salmonella enterica ATCC 13076 assessed as reduction in microbial growth after 24 hrs by broth microdilution method; assay type: functional
Pseudomonas aeruginosa = assay: Antimicrobial activity against Pseudomonas aeruginosa ATCC 27853 assessed as reduction in microbial growth after 24 hrs by broth microdilution method; assay type: functional
Erythrocyte [1] = assay: Hemolytic activity in human RBC assessed as hemolysis at 2 to 128 uM incubated for 30 mins; assay type: toxicity, cell-based; conditions: 0.5 h, dose 2-128 µM
Erythrocyte [2] = assay: Hemolytic activity in human RBC assessed as hemolysis at 32 uM incubated for 30 mins; assay type: toxicity, cell-based; conditions: 0.5 h
A-427 = assay: Anticancer activity against human A-427 cells assessed as inhibition of cell growth incubated for 24 hrs by CCK-8 assay; assay type: functional, cell-based; conditions: A-427, 24 h
NCI-H441 = assay: Anticancer activity against human NCI-H441 cells assessed as inhibition of cell growth incubated for 24 hrs by CCK-8 assay; assay type: functional, cell-based

Molecule | MIC (Bacillus cereus) | MIC (Candida albicans) | MIC (Listeria monocytogenes) | MIC (Staphylococcus aureus) | MIC (Enterococcus faecalis) | MIC (Escherichia coli) | MIC (Salmonella enterica) | MIC (Pseudomonas aeruginosa) | Activity (Erythrocyte [1]) | Activity (Erythrocyte [2]) | IC50 (A-427) | Activity (NCI-H441)
NC[C@H]1O[C@H](O[C@H]2[C@H](O)[C@@H](O[C@H]3O[C@H](CO)[C@@H](O)[C@H](N)[C@H]3O)[C@H](N)C[C@@H]2N)[C@H](O)[C@@H](O)[C@@H]1O [KANAMYCIN] | 64 µM | > 128 µM | 32 µM | 32 µM | > 128 µM | 32 µM | 16 µM | > 128 µM | – | – | – | –
H-LNLKKLLAVAKKIL-NH2 | 16 µM | 32 µM | 8 µM | 64 µM | 8 µM | 8 µM | 64 µM | 128 µM | Non-Toxic | – | 5.1 µM | Active
H-LNLKKLLKVAKKIL-NH2 | 16 µM | 16 µM | 4 µM | 32 µM | 4 µM | 8 µM | 32 µM | 64 µM | Non-Toxic | – | – | –

Now those with a lower MIC (Bacillus cereus), led by results:

MIC (Bacillus cereus) | MIC (Candida albicans) | MIC (Listeria monocytogenes) | MIC (Staphylococcus aureus) | MIC (Enterococcus faecalis) | MIC (Escherichia coli) | MIC (Salmonella enterica) | MIC (Pseudomonas aeruginosa) | Molecule | Activity (Erythrocyte [1]) | Activity (Erythrocyte [2]) | IC50 (A-427) | Activity (NCI-H441)
8 µM | > 128 µM | 64 µM | 32 µM | 64 µM | 8 µM | 8 µM | > 128 µM | O=C(N[C@H](CO)[C@H](O)c1ccc([N+](=O)[O-])cc1)C(Cl)Cl [CHLORAMPHENICOL] | – | – | – | –
4 µM | 8 µM | 8 µM | 32 µM | 4 µM | 8 µM | 32 µM | 64 µM | H-LNLKALLAVAKKIL-NH2 | Non-Toxic | Toxic | – | –
8 µM | 16 µM | 4 µM | 32 µM | 4 µM | 8 µM | 64 µM | 64 µM | H-LNLKALLKVAKKIL-NH2 | Non-Toxic | Toxic | 7 µM | Active
